According to article PMC6584114, “Metabolism of IMM-H004 and Its Pharmacokinetic-Pharmacodynamic Analysis in Cerebral Ischemia/Reperfusion Injured Rats” (Frontiers in Pharmacology, 2019):
Where two headings read alike, the source gives them in different places.

What was measured:
[1] = test system: primary human hepatocytes; test: IMM-H004 metabolism by primary human hepatocytes; assay type: in vitro ADME; details: human hepatocytes incubated with 30 nM IMM-H004, up to 3 h
Protocol: Primary human hepatocytes were used to predict the metabolism of IMM-H004 in humans. Cryopreserved human hepatocytes were obtained from Bioreclamation IVT (Baltimore, MD, USA). Three different hepatocyte preparations (Lot CDP, ZHL, and DSX) were pooled in this study. Hepatocytes were resuspended and seeded in 96-well plates at a density of 0.7 × 10^6 cells/ml. After 24 h of culture, cells were washed with Hanks’ balanced salt solution, followed by addition of 30 nM IMM-H004 dissolved in Hanks’ balanced salt solution. Incubations were carried out at 37°C up to 3 h under gentle shaking. Cell culture supernatant was collected within 3 h and determined by LC-MS/MS. All experiments were conducted in triplicate.
(§1) The LC-MS/MS system consisted of Shimadzu 30A UPLC and API 4000 triple quadruple mass spectrometer (AB SCIEX, USA). Data acquisition and analysis were accomplished using Analyst 1.5.2 software. The analytes and IS were chromatographed by injection of 1 μL sample. The mobile phases consisted of solvent A (0.5% formic acid in water) and solvent B (0.5% formic acid in methanol) at a flow rate of 0.3 ml/min on an Eclipse Plus C18 column (2.1 mm × 50 mm, 3.5 μm, Agilent, USA), and the operating temperature was 40°C. The elution condition was 10% solvent B for 0.7 min, ascending to 98% B in 2.3 min, holding for 3.0 min and reequilibrating to 10% B within 0.1 min and maintained for 2.4 min (Jiang JW, 2018). The specific transitions monitored were 305→248 for IMM-H004, 291→234 for M1, 291→248 for M2, 481→305 for IMM-H004G, 385→305 for M4, and 260→183 for IS.

cell cultures = details: not tested in this paper's methods; reference not given; cited from earlier work
[2] = test system: recombinant human CYP450 enzymes; test: Metabolism by cDNA-expressed human CYP450 enzymes; assay type: in vitro ADME; details: 1 μM IMM-H004, 50 pmol/ml CYP, 40 min
Protocol: CYP450s. IMM-H004 was incubated in triplicate with […] individual human complementary DNA (cDNA) expressed CYPs (CYP1A1, 1A2, 2A6, 2B6, 2C8, 2C9, 2C19, 2D6, 2E1, 2J2, 3A4, 4A11, 4F2, and 4F3) at 37°C. The incubation mixtures contained individual CYP450 enzymes (50 pmol/ml), IMM-H004 (1 μM), and NADPH regeneration system in a final volume of 0.2 ml Tris-HCl buffer (50 mM, pH 7.4) containing 5 mM MgCl2. The mixtures were incubated for 40 min before being quenched with two volumes of ice-cold acetonitrile containing IS (100 ng/ml). After vortex-mixing and centrifugation, M1 and M2 in the supernatant were analyzed by LC-MS/MS.

chemokine-like factor 1 = test system: chemokine-like factor 1; set-up: method as in earlier work; details: ref Li et al., 2010, Kong et al., 2011, Sun et al., 2013, 2014, read-out: IC50 as antagonist of chemokine-like factor 1; cited from earlier work
[3] = Plasma pharmacokinetics in MCAO/R rats after iv IMM-H004 citrate; assay type: in vivo; details: rat, iv IMM-H004 citrate 10 mg/kg; for Tmax: iv, 10 mg/kg
Protocol: The plasma pharmacokinetics (PK) and pharmacodynamics (PD) of IMM-H004 and IMM-H004G were investigated in a cerebral ischemia-reperfusion rat model produced by middle cerebral artery occlusion/reperfusion (MCAO/R) after iv administration of IMM-H004. In brief, rats underwent a 1-h MCAO and then received IMM-H004 citrate (10 mg/kg, dissolved in saline to yield a concentration of 2 mg/ml) immediately after reperfusion, an effective dosing time as reported ([Zuo et al., 2015]; [Yang et al., 2017]). For sham surgery, all the arteries were exposed for the surgical period, but the filament was not inserted into the MCA. Blood samples were collected through external jugular vein cannula into heparinized tubes at 0.033, 0.167, 0.5, 1, 2, 4, 6, 8, 12, 24, 36, and 48 h postdose for IMM-H004 and IMM-H004G detection (50 μL of blood at each time point) and at 0.5, 1, 2, 4, 7, and 10 h postdose for malondialdehyde (MDA) detection (80 μL of blood at each time point). Plasma was immediately separated by centrifugation at 900×g for 5 min. Plasma concentrations of IMM-H004 and IMM-H004G in ischemia-reperfusion rats were determined by LC-MS/MS analysis. The PK parameters were calculated by noncompartmental analysis using WinNonlin Version 6.1 (Pharsight, Mountain View, CA). Plasma MDA concentrations in ischemia-reperfusion and sham rats within 24 h were estimated by enzyme-linked immunosorbent assay.
as §1

PC12 cells = test: Neuroprotection in oxygen-glucose deprivation injured PC12 cells (MTT cell viability); assay type: cell-based
Protocol: The neuroprotective activity of IMM-H004 and IMM-H004G was evaluated on PC12 cells damaged by oxygen-glucose deprivation (OGD). PC12 cells were purchased from the American Type Culture Collection. Cultures were maintained at 37°C in 5% CO2 in a humidified incubator. For cell viability assay, PC12 cells were incubated in 96-well plates at a density of 5 × 10^4/ml for 24 h. In the sham group, PC12 cells were cultured in Dulbecco’s modified eagle medium supplemented with 5% fetal bovine serum and 5% equine serum (Gibco, USA). In the OGD group, PC12 cells were cultured in glucose-free Earle’s balanced salt solution supplemented with 15 mM Na2S2O4 for 2 h and then incubated with compounds of nerve growth factor (NGF, 10 μM), edaravone (10 μM, 50 μM), IMM-H004 (1 μM, 10 μM), and IMM-H004G (1 μM, 10 μM), respectively. After 24 h of incubation, MTT (5 mg/ml) was added into the cell cultures and incubated for an additional 4 h. Then the supernatant was removed and 100 μL DMSO was added. Absorbance was measured using an Ultramark microplate reader at a wavelength of 562 nm. The cell viability was expressed as a percentage of the absorbance density value of control cultures.

[4] = set-up: method as in Jiang et al., 2018; details: brain microdialysis; ref Jiang et al., 2018; cited from earlier work
[5] = Excretion in rat urine, bile and feces after iv IMM-H004 citrate; assay type: in vivo; details: iv IMM-H004 citrate 6 mg/kg
Protocol: After intravenous (iv) injection with IMM-H004 citrate (6 mg/kg, dissolved in saline to yield a concentration of 1.2 mg/ml), rats were housed individually in metabolic cages to allow separate collection of urine and feces until 72 h postdose. Additional rats were bile cannulated under light ether anesthesia. Each rat was housed individually in a metabolic cage and allowed to recover from anesthesia for 2 to 3 h. Then bile duct cannulated rats were iv injected with IMM-H004 citrate (6 mg/kg, dissolved in saline to yield a concentration of 1.2 mg/ml), bile samples were collected until 24 h postdose.
Feces samples were homogenized in 10-fold solvent of water and methanol (1:1) and diluted 10-fold in water. Bile and urine samples were diluted 100-fold in water. The concentrations of IMM-H004, M1, M2, and IMM-H004G in diluted bile, urine, and feces samples were determined by LC-MS/MS.
as §1

MCAO/R rats = test: Neuroprotection in transient MCAO/R rats (infarct volume, neurological score); assay type: in vivo, rat; details: 10 mg/kg iv after reperfusion, 24 h, vs model
Text: Transient MCAO/R was applied to compare the neuroprotection of IMM-H004 and IMM-H004G. Rats were fasted overnight with free access to water and randomly assigned to different groups. Rats were anesthetized with a mixture of 5% isoflurane and 95% oxygen and maintained with a mixture of 3% isoflurane and 97% oxygen during the surgical procedure. A 4-0 nylon thread, the tip of which was burned (diameter 0.36 mm), was inserted into the right internal carotid artery and advanced until the origin of the right MCA was occluded. After 60 min of the occlusion, the thread was withdrawn to allow reperfusion, and then the rats were returned to the chamber. Saline or edaravone at dose of 6 mg/kg or IMM-H004 citrate and IMM-H004G at dose of 10 mg/kg (dissolved in saline to yield a concentration of 2 mg/ml) were administered by intravenous injection immediately after reperfusion.
The rats were assessed for neurologic deficits at 24 h after reperfusion according to Zea Longa’s five-point scale. […] The animals without symptoms of neurological impairment or dying after the surgery were rejected. All animals were killed 24 h after reperfusion. Brains of the animals were removed and cut into 2 mm-thick slices, for a total of six slices per animal. The slices were immersed in a 2% solution of 2,3,5-triphenyltetrazolium chloride in phosphate buffered saline at 37°C for 20 min and then fixed in 4% formaldehyde overnight. Images of the slices were obtained with a scanner and a computer. The infarct area and the total area were calculated by tracing the areas on the computer screen with Image J. The percentage of the infarct volume was expressed as the infarct volumes (white parts)/the whole volume of the cortex.

| detection of metabolite in cell supernatant [1] | AUC(0-inf) [3] [ng·h/mL] | AUC(0-t) [3] [ng·h/mL] | Cmax [3] [ng/mL] | MRT last ([3]; read-out: MRT(0-t)) [h] | MRT inf ([3]; read-out: MRT(0-∞)) [h] | half-life ([3]; read-out: t 1/2β (converted)) [min] | Tmax ([3]; read-out: T max) [min] | Tmax ([3]; read-out: time to maximum plasma concentration after dosing) [min] | recovery of IMM-H004G in bile ([5]; bile duct cannulated rats, until 24 h) | IMM-H004G in feces ([5]; rat feces) | urinary IMM-H004G recovered ([5]; rat urine, 72-h sampling period) | Compound | neuroprotective activity in cell cultures (cell cultures) | M1 formation in CYP450 enzyme incubations [2] | IC50 (chemokine-like factor 1) [nM] | cell viability of OGD-injured PC12 cells (PC12 cells; 1 and 10 μM, 24 h, MTT, vs model group) | IMM-H004 detected in PC12 cultures after incubation with IMM-H004G (PC12 cells; 24 h of incubation with IMM-H004G) | exposure of IMM-H004G in rat brain extracellular fluid relative to IMM-H004 [4] [fold] | infarct volume (MCAO/R rats) | neurological test score (MCAO/R rats) |
| --- | --- | --- | --- | --- | --- | --- | --- | --- | --- | --- | --- | --- | --- | --- | --- | --- | --- | --- | --- | --- |
| not detectable |  |  |  |  |  |  |  |  |  |  |  | COc1cc(O)cc2oc(=O)c(N3CCNCC3)c(C)c12 [M2] |  |  |  |  |  |  |  |  |
| not detectable |  |  |  |  |  |  |  |  |  |  |  | Cc1c(N2CCN(C)CC2)c(=O)oc2cc(O)cc(O)c12 [M1] | showed neuroprotective activity in cell cultures | could not be detected in all CYP450 enzymes incubations | 21.2 |  |  |  |  |  |
| could be detected | 29100 | 28900 | 13000 | 7.89 ± 0.57 | 8.16 ± 0.65 | 397 ± 51.6 | 10.2 | ≤ 15 | 75.9 % of intake | undetectable | 69.7 % of intake | COc1cc(OC2OC(C(=O)O)C(O)C(O)C2O)cc2oc(=O)c(N3CCN(C)CC3)c(C)c12 (stereo not shown) [IMM-H004G] |  |  |  | significant (p < 0.05) preservation of viability | only trace of IMM-H004 could be detected | 10.5 | markedly reduced (p < 0.01) | significant improvement (p < 0.01) |
